Patent US9873709B2 (priority 2013, dated 2018)

What follows are molecules tested on JAK1-dependent STAT6 phosphorylation downstream of IL-13 stimulation in TF-1 human erythroleukemia cells (assay: cells). Conditions: TF-1, read-out: IL-13-pSTAT6 IC50.

Compound	IC50
CN1CCC(N(C)C(=O)c2ccc(Nc3nc4c(C5=CCN(C(=O)N6CC7(COC7)C6)CC5)cccn4n3)cc2)CC1 [Example 2-286, N-methyl-N-(1-methyl-4-piperidyl)-4-[[8-[1-(2-oxa-6-azaspiro[3.3]heptane-6-carbonyl)-3,6-dihydro-2H-pyridin-4-yl]-[1,2,4]triazolo[1,5-a]pyridin-2-yl]amino]benzamide]	1750 nM
CN1CCC(N(C)C(=O)c2ccc(Nc3nc4c(C5=CCN(C(=O)CCC#N)CC5)cccn4n3)cc2)CC1 [Example 2-287, 4-[[8-[1-(3-cyanopropanoyl)-3,6-dihydro-2H-pyridin-4-yl]-[1,2,4]triazolo[1,5-a]pyridin-2-yl]amino]-N-methyl-N-(1-methyl-4-piperidyl)benzamide]	248 nM
CCCC(=O)N1CC=C(c2cccn3nc(Nc4ccc(C(=O)N(C)C5CCN(C)CC5)cc4)nc23)CC1 [Example 2-289, 4-[[8-(1-butanoyl-3,6-dihydro-2H-pyridin-4-yl)-[1,2,4]triazolo[1,5-a]pyridin-2-yl]amino]-N-methyl-N-(1-methyl-4-piperidyl)benzamide]	42.9 nM
CN1CCC(N(C)C(=O)c2ccc(Nc3nc4c(C5=CCN(C(=O)N6CC(C)(C)C6)CC5)cccn4n3)cc2)CC1 [Example 2-290, 4-[[8-[1-(3,3-dimethylazetidine-1-carbonyl)-3,6-dihydro-2H-pyridin-4-yl]-[1,2,4]triazolo[1,5-a]pyridin-2-yl]amino]-N-methyl-N-(1-methyl-4-piperidyl)benzamide]	37.7 nM
CCOC(=O)N1CC=C(c2cccn3nc(Nc4ccc(C(=O)NCCCN5CCN(C)CC5)cc4)nc23)CC1 [Example 2-291, ethyl 4-[2-[4-[3-(4-methylpiperazin-1-yl)propylcarbamoyl]anilino]-[1,2,4]triazolo[1,5-a]pyridin-8-yl]-3,6-dihydro-2H-pyridine-1-carboxylate]	22.3 nM
CCOC(=O)N1CC=C(c2cccn3nc(Nc4ccc(C(=O)NCC5CCCN(C)C5)cc4)nc23)CC1 (stereo not drawn) [Example 2-293, ethyl 4-[2-[4-[(1-methyl-3-piperidyl)methylcarbamoyl]anilino]-[1,2,4]triazolo[1,5-a]pyridin-8-yl]-3,6-dihydro-2H-pyridine-1-carboxylate]	29.5 nM
CCOC(=O)N1CC=C(c2cccn3nc(Nc4ccc(C(=O)NCC5CCNC5)cc4)nc23)CC1 (stereo not drawn) [Example 2-296, ethyl 4-[2-[4-(pyrrolidin-3-ylmethylcarbamoyl)anilino]-[1,2,4]triazolo[1,5-a]pyridin-8-yl]-3,6-dihydro-2H-pyridine-1-carboxylate]	383 nM
CCOC(=O)N1CC=C(c2cccn3nc(Nc4ccc(C(=O)NCC5CC56CCNCC6)cc4)nc23)CC1 (stereo not drawn) [Example 2-306, ethyl 4-[2-[4-(6-azaspiro[2.5]octan-2-ylmethylcarbamoyl)anilino]-[1,2,4]triazolo[1,5-a]pyridin-8-yl]-3,6-dihydro-2H-pyridine-1-carboxylate]	438 nM
CCOC(=O)N1CC=C(c2cccn3nc(Nc4ccc(C(=O)N5CCC6CNCC65)cc4)nc23)CC1 (stereo not drawn) [Example 2-308, ethyl 4-[2-[4-(3,3a,4,5,6,6a-hexahydro-2H-pyrrolo[2,3-c]pyrrole-1-carbonyl)anilino]-[1,2,4]triazolo[1,5-a]pyridin-8-yl]-3,6-dihydro-2H-pyridine-1-carboxylate]	76.1 nM
O=C(CCC(F)(F)F)N1CC=C(c2cccn3nc(Nc4ccc(C(=O)N5CC6CNCC6C5)cc4)nc23)CC1 (stereo not drawn) [Example 2-313, 1-[4-[2-[4-(2,3,3a,4,6,6a-hexahydro-1H-pyrrolo[3,4-c]pyrrole-5-carbonyl)anilino]-[1,2,4]triazolo[1,5-a]pyridin-8-yl]-3,6-dihydro-2H-pyridin-1-yl]-4,4,4-trifluoro-butan-1-one]	184 nM
O=C(CCC(F)(F)F)N1CC=C(c2cccn3nc(Nc4ccc(C(=O)N5CCC6(CC5)CNC6)cc4)nc23)CC1 [Example 2-314, 1-[4-[2-[4-(2,7-diazaspiro[3.5]nonane-7-carbonyl)anilino]-[1,2,4]triazolo[1,5-a]pyridin-8-yl]-3,6-dihydro-2H-pyridin-1-yl]-4,4,4-trifluoro-butan-1-one]	194 nM
NC1CC2(CCN(C(=O)c3ccc(Nc4nc5c(C6=CCN(C(=O)CCC(F)(F)F)CC6)cccn5n4)cc3)CC2)C1 [Example 2-315, 1-[4-[2-[4-(2-amino-7-azaspiro[3.5]nonane-7-carbonyl)anilino]-[1,2,4]triazolo[1,5-a]pyridin-8-yl]-3,6-dihydro-2H-pyridin-1-yl]-4,4,4-trifluoro-butan-1-one]	109 nM
O=C(NCCC1CCCN1)c1ccc(Nc2nc3c(C4=CCN(C(=O)CCC(F)(F)F)CC4)cccn3n2)cc1 (stereo not drawn) [Example 2-316, N-(2-pyrrolidin-2-ylethyl)-4-[[8-[1-(4,4,4-trifluorobutanoyl)-3,6-dihydro-2H-pyridin-4-yl]-[1,2,4]triazolo[1,5-a]pyridin-2-yl]amino]benzamide]	145 nM
O=C(NCC1CCCN1)c1ccc(Nc2nc3c(C4=CCN(C(=O)CCC(F)(F)F)CC4)cccn3n2)cc1 (stereo not drawn) [Example 2-317, N-(pyrrolidin-2-ylmethyl)-4-[[8-[1-(4,4,4-trifluorobutanoyl)-3,6-dihydro-2H-pyridin-4-yl]-[1,2,4]triazolo[1,5-a]pyridin-2-yl]amino]benzamide]	228 nM
O=C(CCC(F)(F)F)N1CC=C(c2cccn3nc(Nc4ccc(C(=O)N5CCNCC5)cc4)nc23)CC1 [Example 2-318, 4,4,4-trifluoro-1-[4-[2-[4-(piperazine-1-carbonyl)anilino]-[1,2,4]triazolo[1,5-a]pyridin-8-yl]-3,6-dihydro-2H-pyridin-1-yl]butan-1-one]	37.7 nM
CC1CNCCN1C(=O)c1ccc(Nc2nc3c(C4=CCN(C(=O)CCC(F)(F)F)CC4)cccn3n2)cc1 (stereo not drawn) [Example 2-319, 4,4,4-trifluoro-1-[4-[2-[4-(2-methylpiperazine-1-carbonyl)anilino]-[1,2,4]triazolo[1,5-a]pyridin-8-yl]-3,6-dihydro-2H-pyridin-1-yl]butan-1-one]	24.3 nM
O=C(CCC(F)(F)F)N1CC=C(c2cccn3nc(Nc4ccc(C(=O)N5CC[C@H]6CNC[C@H]65)cc4)nc23)CC1 [Example 2-320, 1-[4-[2-[4-[(3aS,6aS)-3,3a,4,5,6,6a-hexahydro-2H-pyrrolo[2,3-c]pyrrole-1-carbonyl]anilino]-[1,2,4]triazolo[1,5-a]pyridin-8-yl]-3,6-dihydro-2H-pyridin-1-yl]-4,4,4-trifluoro-butan-1-one]	120 nM
O=C(CCC(F)(F)F)N1CC=C(c2cccn3nc(Nc4ccc(C(=O)N5C[C@H]6CNC[C@H]6C5)cc4)nc23)CC1 [Example 2-321, 1-[4-[2-[4-[(3aR,6aS)-2,3,3a,4,6,6a-hexahydro-1H-pyrrolo[3,4-c]pyrrole-5-carbonyl]anilino]-[1,2,4]triazolo[1,5-a]pyridin-8-yl]-3,6-dihydro-2H-pyridin-yl]-4,4,4-trifluoro-butan-1-one]	250 nM
O=C(NC1CC2(CCNCC2)C1)c1ccc(Nc2nc3c(C4=CCN(C(=O)CCC(F)(F)F)CC4)cccn3n2)cc1 [Example 2-322, N-(7-azaspiro[3.5]nonan-2-yl)-4-[[8-[1-(4,4,4-trifluorobutanoyl)-3,6-dihydro-2H-pyridin-4-yl]-[1,2,4]triazolo[1,5-a]pyridin-2-yl]amino]benzamide]	104 nM
N[C@]12C[C@H]1CN(C(=O)c1ccc(Nc3nc4c(C5=CCN(C(=O)CCC(F)(F)F)CC5)cccn4n3)cc1)C2 [Example 2-323]	17.5 nM
CN1CCCCC1C1CCCN1C(=O)c1ccc(Nc2nc3c(C4=CCN(C(=O)CCC(F)(F)F)CC4)cccn3n2)cc1 (stereo not drawn) [Example 2-324, 4,4,4-trifluoro-1-[4-[2-[4-[2-(1-methyl-2-piperidyl)pyrrolidine-1-carbonyl]anilino]-[1,2,4]triazolo[1,5-a]pyridin-8-yl]-3,6-dihydro-2H-pyridin-yl]butan-1-one]	8.2 nM
CN(C)C(=O)C1CN(C(=O)c2ccc(Nc3nc4c(C5=CCN(C(=O)CCC(F)(F)F)CC5)cccn4n3)cc2)CCN1C (stereo not drawn) [Example 2-325, N,N,1-trimethyl-4-[4-[[8-[1-(4,4,4-trifluorobutanoyl)-3,6-dihydro-2H-pyridin-4-yl]-[1,2,4]triazolo[1,5-a]pyridin-2-yl]amino]benzoyl] piperazine-2-carboxamide]	191 nM
CN1C[C@@H]2CCN(C(=O)c3ccc(Nc4nc5c(C6=CCN(C(=O)CCC(F)(F)F)CC6)cccn5n4)cc3)[C@@H]2C1 [Example 2-326, 1-[4-[2-[4-[(3aS,6aS)-5-methyl-2,3,3a,4,6,6a-hexahydropyrrolo[2,3-c]pyrrole-1-carbonyl]anilino]-[1,2,4]triazolo[1,5-a]pyridin-8-yl]-3,6-dihydro-2H-pyridin-1-yl]-4,4,4-trifluoro-butan-1-one]	4.2 nM
CN1CCC2(C1)CN(C(=O)c1ccc(Nc3nc4c(C5=CCN(C(=O)CCC(F)(F)F)CC5)cccn4n3)cc1)C2 [Example 2-328, 4,4,4-trifluoro-1-[4-[2-[4-(7-methyl-2,7-diazaspiro[3.4]octane-2-carbonyl)anilino]-[1,2,4]triazolo[1,5-a]pyridin-8-yl]-3,6-dihydro-2H-pyridin-1-yl]butan-1-one]	12.3 nM
O=C(CCC(F)(F)F)N1CC=C(c2cccn3nc(Nc4ccc(C(=O)N5CCN(C6CCCCC6)CC5)cc4)nc23)CC1 [Example 2-329, 1-[4-[2-[4-(4-cyclohexylpiperazine-1-carbonyl)anilino]-[1,2,4]triazolo[1,5-a]pyridin-8-yl]-3,6-dihydro-2H-pyridin-1-yl]-4,4,4-trifluoro-butan-1-one]	8.3 nM
CC(C)N1CCC(N(C)C(=O)c2ccc(Nc3nc4c(C5=CCN(C(=O)CCC(F)(F)F)CC5)cccn4n3)cc2)CC1 [Example 2-330, N-(1-isopropyl-4-piperidyl)-N-methyl-4-[[8-[1-(4,4,4-trifluorobutanoyl)-3,6-dihydro-2H-pyridin-4-yl]-[1,2,4]triazolo[1,5-a]pyridin-2-yl]amino]benzamide]	13.4 nM
COCCN1CCN(C(=O)c2ccc(Nc3nc4c(C5=CCN(C(=O)CCC(F)(F)F)CC5)cccn4n3)cc2)CC1 [Example 2-331, 4,4,4-trifluoro-1-[4-[2-[4-[4-(2-methoxyethyl)piperazine-1-carbonyl]anilino]-[1,2,4]triazolo[1,5-a]pyridin-8-yl]-3,6-dihydro-2H-pyridin-1-yl]butan-1-one]	8.9 nM
